The source of these data is US12365655B2, “Compounds” (CTXT PTY LTD, priority 2018, dated 2025).

One assay deals with TIP60-KAT5 (Homo sapiens, UniProt Q92993). In words: Acetyltransferase biochemical assay (AlphaScreen), KAT5.
The next assay addresses MOZ-KAT6A (Homo sapiens, UniProt Q92794, A567V). As to the kind of experiment: Acetyltransferase biochemical assay (AlphaScreen), KAT6A. On the technique in general: Bead proximity is the source of the signal in Alpha formats.
The next assay deals with HBO-KAT7 (Homo sapiens, UniProt O95251). In words: Acetyltransferase biochemical assay (AlphaScreen), KAT7.
Chain of HBO-KAT7 (O95251 with tags, fused parts or gaps): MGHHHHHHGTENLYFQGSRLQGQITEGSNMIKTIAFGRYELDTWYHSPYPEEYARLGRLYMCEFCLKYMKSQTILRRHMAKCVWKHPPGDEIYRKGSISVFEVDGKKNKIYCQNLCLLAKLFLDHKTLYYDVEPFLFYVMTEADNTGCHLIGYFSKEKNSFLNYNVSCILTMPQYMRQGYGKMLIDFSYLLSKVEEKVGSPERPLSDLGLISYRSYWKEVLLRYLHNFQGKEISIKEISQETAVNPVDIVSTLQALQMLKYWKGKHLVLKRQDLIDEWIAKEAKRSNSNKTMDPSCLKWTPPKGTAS

Chain of MOZ-KAT6A (Q92794 with tags, fused parts or gaps A567V): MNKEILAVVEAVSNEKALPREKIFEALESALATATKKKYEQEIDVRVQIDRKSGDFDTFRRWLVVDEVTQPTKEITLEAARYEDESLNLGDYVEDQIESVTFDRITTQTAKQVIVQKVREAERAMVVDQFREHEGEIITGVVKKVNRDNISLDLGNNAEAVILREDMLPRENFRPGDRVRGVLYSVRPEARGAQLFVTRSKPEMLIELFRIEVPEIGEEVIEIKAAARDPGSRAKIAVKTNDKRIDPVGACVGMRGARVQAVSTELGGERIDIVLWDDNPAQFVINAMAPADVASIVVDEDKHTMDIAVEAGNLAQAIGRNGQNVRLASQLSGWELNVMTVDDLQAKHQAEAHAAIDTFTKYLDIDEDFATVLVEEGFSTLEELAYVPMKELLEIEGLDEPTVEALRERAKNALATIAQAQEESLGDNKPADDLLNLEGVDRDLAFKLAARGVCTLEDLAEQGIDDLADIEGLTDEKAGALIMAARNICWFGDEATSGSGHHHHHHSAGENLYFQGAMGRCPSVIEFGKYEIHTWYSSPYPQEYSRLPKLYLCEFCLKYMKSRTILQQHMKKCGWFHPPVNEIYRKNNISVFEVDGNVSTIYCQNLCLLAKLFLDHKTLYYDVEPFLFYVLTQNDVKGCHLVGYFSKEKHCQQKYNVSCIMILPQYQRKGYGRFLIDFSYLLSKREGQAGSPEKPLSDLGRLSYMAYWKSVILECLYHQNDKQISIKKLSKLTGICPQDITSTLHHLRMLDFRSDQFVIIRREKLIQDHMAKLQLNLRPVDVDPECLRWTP
Chain of TIP60-KAT5 (Q92993 with tags, fused parts or gaps isoform Q92993-2): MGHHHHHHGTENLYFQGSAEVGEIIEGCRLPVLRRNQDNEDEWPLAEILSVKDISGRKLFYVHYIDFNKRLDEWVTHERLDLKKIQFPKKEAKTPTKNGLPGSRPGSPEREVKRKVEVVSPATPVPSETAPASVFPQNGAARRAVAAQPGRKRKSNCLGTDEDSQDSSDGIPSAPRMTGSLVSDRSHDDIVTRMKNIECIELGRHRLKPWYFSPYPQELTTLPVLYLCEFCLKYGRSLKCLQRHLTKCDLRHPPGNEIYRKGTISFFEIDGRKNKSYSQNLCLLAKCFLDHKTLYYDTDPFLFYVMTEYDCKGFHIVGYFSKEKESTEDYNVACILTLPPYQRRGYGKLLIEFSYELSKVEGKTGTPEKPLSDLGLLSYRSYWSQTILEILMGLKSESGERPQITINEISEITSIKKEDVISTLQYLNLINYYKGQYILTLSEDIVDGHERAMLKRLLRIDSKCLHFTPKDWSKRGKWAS

Consider `O=S(=O)(Nc1noc2cccc(Cl)c12)c1ccc(-n2cccn2)cc1` [Example 28, N-(4-chlorobenzo [d]isoxazol-3-yl)-4-(1H-pyrazol-1-yl)benzenesulfonamide], for which the IC50 (commonly the concentration at which inhibition is half-maximal) is more than 125 µM on TIP60-KAT5, 117 µM against MOZ-KAT6A and 54.8 µM at HBO-KAT7.

Regarding `CCc1ccc(OC)c(S(=O)(=O)Nc2noc3cc(OCC4CC4)ccc23)c1` [Example 134], the IC50 was 51.5 µM on TIP60-KAT5, 6.45 µM against MOZ-KAT6A and 27.6 µM against HBO-KAT7.

As to `O=S(=O)(Nc1noc2cccc(Cl)c12)c1ccc(Oc2ccc(F)cc2)cc1` [Example 17, N-(4-chlorobenzo[d]isoxazol-3-yl)-4-(4-fluorophenoxy) benzenesulfonamide], the IC50 came out at 27.7 µM against TIP60-KAT5, 11.8 µM at MOZ-KAT6A and 14.6 µM at HBO-KAT7.

As for `COc1cccc(OC(C)C)c1S(=O)(=O)Nc1noc2cccc(OC)c12` [Example 217, 2-Isopropoxy-6-methoxy-N-(4-methoxybenzo[d]isoxazol-3-yl)benzenesulfonamide], the IC50 against TIP60-KAT5 was more than 125 µM; at MOZ-KAT6A, 10.2 µM; at HBO-KAT7, 18.4 µM.

`COc1ccc(S(=O)(=O)Nc2noc3cc(C#N)c(C)cc23)c(OC)c1` [Example 169]: the IC50 against TIP60-KAT5 turned out to be 63.2 µM; against MOZ-KAT6A it was 24.8 µM; on HBO-KAT7, 8.65 µM.

With `COc1cccc(O)c1S(=O)(=O)Nc1noc2cccc(OC)c12` [Example 213, 2-Hydroxy-6-methoxy-N-(4-methoxybenzo[d]isoxazol-3-yl)benzenesulfonamide], the IC50 against TIP60-KAT5 was more than 125 µM; on MOZ-KAT6A, 8.28 µM; at HBO-KAT7 it was 20.5 µM.

In the case of `COc1ccc(F)cc1S(=O)(=O)Nc1noc2cccc(Cl)c12` [Example 5, N-(4-chlorobenzo [d]isoxazol-3-yl)-5-fluoro-2-methoxybenzene sulfonamide], the IC50 against TIP60-KAT5 was found to be 114 µM; at MOZ-KAT6A it was 31.3 µM; at HBO-KAT7, 6.01 µM.

With `CCc1ccc(OC)c(S(=O)(=O)Nc2noc3cccc(-c4cnn(C)c4)c23)c1` [Example 202, 5-Ethyl-2-methoxy-N-(4-(1-methyl-1H-pyrazol-4-yl)benzo[d]isoxazol-3-yl)benzenesulfonamide], the IC50 against TIP60-KAT5 turned out to be 111 µM; on MOZ-KAT6A, 18.9 µM; against HBO-KAT7 it was 54.4 µM.

Regarding `CCc1ccc(OC)c(S(=O)(=O)Nc2noc3cccc(Br)c23)c1` [Example 129], the IC50 against TIP60-KAT5 was found to be 18.5 µM; against MOZ-KAT6A it was 0.772 µM; on HBO-KAT7 it was 1.32 µM.

Regarding `COc1ccc(OC)c(S(=O)(=O)Nc2noc3ccccc23)c1` [Example 46, N-(benzo[d]isoxazol-3-yl)-2,5-dimethoxybenzene-sulfonamide], the values for the IC50 against TIP60-KAT5, against MOZ-KAT6A and against HBO-KAT7 were more than 125 µM, 36.2 µM and 74.4 µM, respectively.

In the case of `CCc1cccc(S(=O)(=O)Nc2noc3ccccc23)c1` [Example 52, N-(benzo[d]isoxazol-3-yl)-3-ethylbenzene sulfonamide], the IC50 at TIP60-KAT5 is more than 125 µM; against MOZ-KAT6A, 85.3 µM; against HBO-KAT7 it was more than 125 µM.

As for `O=S(=O)(Nc1noc2cccc(Cl)c12)c1ccc(OC(F)F)cc1` [Example 34, N-(4-chlorobenzo [d]isoxazol-3-yl)-4-(difluoromethoxy) benzenesulfonamide], the figures for the IC50 against TIP60-KAT5, on MOZ-KAT6A and on HBO-KAT7 were more than 125 µM, more than 125 µM and 31.5 µM, respectively.
